Where a name gives a salt, the structure may show the parent alone. The source made the active and inactive calls. The calls are words filed in the database; no cut-off is given here.
Key:
Staphylococcus aureus [1] = assay: Antibacterial activity against Staphylococcus aureus ATCC 25923 at 20 uM; assay type: functional, organism-based
Vibrio alginolyticus = assay: Antibacterial activity against Vibrio alginolyticus ATCC 17749 at 20 uM; assay type: functional, organism-based
HeLa = assay: Cytotoxicity against human HeLa cells assessed as decrease in cell viability by MTT assay; assay type: functional, cell-based
Escherichia coli = assay: Antibacterial activity against Escherichia coli ATCC 25922 at 20 uM; assay type: functional, organism-based
Staphylococcus aureus [2] = assay: Antibacterial activity against methicillin-resistant Staphylococcus aureus ATCC 33591 at 20 uM; assay type: functional, organism-based
Bacillus cereus = assay: Antibacterial activity against Bacillus cereus ATCC 11778 at 20 uM; assay type: functional, organism-based
HepG2 = assay: Cytotoxicity against human HepG2 cells assessed as decrease in cell viability by MTT assay; assay type: functional, cell-based
Vibrio parahaemolyticus = assay: Antibacterial activity against Vibrio parahaemolyticus ATCC 17802 at 20 uM; assay type: functional, organism-based
A549 = assay: Cytotoxicity against human A549 cells assessed as decrease in cell viability by MTT assay; assay type: functional, cell-based

CC(C)=CCC[C@@]12C(=O)CC[C@@H](C)[C@]1(C)CC[C@@](C)(O)[C@H]2Cc1c[nH]c2ccccc12
Activity (Staphylococcus aureus [1]): inactive
Activity (Vibrio alginolyticus): inactive
IC50 (HeLa): 20 µM
Activity (Escherichia coli): inactive
Activity (Staphylococcus aureus [2]): inactive
Activity (Bacillus cereus): inactive
IC50 (HepG2): 47.2 µM
Activity (Vibrio parahaemolyticus): inactive
IC50 (A549): 18.6 µM

COc1cccc2c1C(=O)c1c(O)c3c(c(O)c1C2=O)C[C@@](O)(C(=O)CO)C[C@@H]3O[C@H]1C[C@H](N)[C@H](O)[C@H](C)O1 [DOXORUBICIN HYDROCHLORIDE]
IC50 (HeLa): 0.1 µM

CC(C)=CCC[C@@]12[C@@H](O)CC[C@@H](C)[C@]1(C)CC[C@@](C)(O)[C@H]2Cc1c[nH]c2ccccc12
Activity (Staphylococcus aureus [1]): inactive
Activity (Vibrio alginolyticus): inactive
IC50 (HeLa): 23.3 µM
Activity (Escherichia coli): inactive
Activity (Staphylococcus aureus [2]): inactive
Activity (Bacillus cereus): inactive
IC50 (HepG2): 1.5 µM
Activity (Vibrio parahaemolyticus): inactive
IC50 (A549): 5.5 µM

O=c1[nH]cc(F)c(=O)[nH]1 [FLUOROURACIL]
IC50 (HeLa): 28 µM
IC50 (A549): 36.8 µM
